pIC50: −log10 of the molar value.
Molecular target: activated ERK2 (Homo sapiens (Human), UniProt P28482)
Experiment: Activated ERK2 kinase assay, ERK2 New conditions (AlphaScreen, ERKtide phosphorylation)
Type: biochemical
Details: 0.25 nM ERK2, 200 nM ERKtide peptide, 35 μM ATP, 30 min preincubation
Method in brief: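 0.25 nM ERK2 preincubated 30 min with compound, then reacted 2–3 h at ambient temperature with 200 nM ERKtide and 35 µM ATP (final) in HEPES pH 7.5 buffer. EDTA stop; phospho-peptide detected by AlphaScreen after overnight incubation; IC50 from four-parameter fit.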

Chain of activated ERK2 (P28482 whole entry): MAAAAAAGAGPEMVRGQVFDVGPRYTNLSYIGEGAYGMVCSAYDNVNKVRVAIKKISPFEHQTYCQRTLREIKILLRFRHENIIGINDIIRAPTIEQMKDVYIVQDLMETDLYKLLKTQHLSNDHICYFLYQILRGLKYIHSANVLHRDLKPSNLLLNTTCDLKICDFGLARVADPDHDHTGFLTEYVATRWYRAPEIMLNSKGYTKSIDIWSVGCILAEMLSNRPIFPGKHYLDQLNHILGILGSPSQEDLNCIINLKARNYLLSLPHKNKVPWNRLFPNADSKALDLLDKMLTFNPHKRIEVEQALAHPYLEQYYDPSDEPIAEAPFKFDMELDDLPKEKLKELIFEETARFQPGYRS

Row | SMILES | pIC50
1 | Nc1ncc(C2CCOCC2)nc1-c1ccc2c(c1)OCCN(Cc1ccccc1)C2=O [Example 109, 8-(3-amino-6-(tetrahydro-2H-pyran-4-yl)pyrazin-2-yl)-4-benzyl-3,4-dihydrobenzo[f][1,4]oxazepin-5(2H)-one] | 8.24
2 | Nc1ncc(CCO)nc1-c1ccc(C(=O)N[C@H](CO)c2ccccc2)c(F)c1 [Example 111, (S)-4-(3-amino-6-(2-hydroxyethyl)pyrazin-2-yl)-2-fluoro-N-(2-hydroxy-1-phenylethyl)benzamide] | 7.51
3 | COCCc1cnc(N)c(-c2ccc(C(=O)N[C@H](CO)c3ccccc3)c(F)c2)n1 [Example 112, (S)-4-(3-amino-6-(2-methoxyethyl)pyrazin-2-yl)-2-fluoro-N-(2-hydroxy-1-phenylethyl)benzamide] | 6.85
4 | N#CCCc1cnc(N)c(-c2ccc(C(=O)N[C@H](CO)c3ccccc3)c(F)c2)n1 [Example 114, (S)-4-(3-amino-6-(2-cyanoethyl)pyrazin-2-yl)-2-fluoro-N-(2-hydroxy-1-phenylethyl)benzamide] | 6.91
5 | Nc1ncc(C2CCOCC2)nc1-c1ccc(C(=O)N[C@@H]2CCCN(Cc3ccccc3F)C2)c(F)c1 [Example 126, (R)-4-(3-amino-6-(tetrahydro-2H-pyran-4-yl)pyrazin-2-yl)-2-fluoro-N-(1-(2-fluorobenzyl)piperidin-3-yl)benzamide] | 6.77
6 | Nc1ncc([C@@H]2CCOC2)nc1-c1ccc(C(=O)N[C@H](CO)c2ccccc2)cc1 [Example 136, 4-(3-amino-6-((S)-tetrahydrofuran-3-yl)pyrazin-2-yl)-N—((S)-2-hydroxy-1-phenylethyl)benzamide] | 8.35
7 | Nc1ncc([C@H]2CCOC2)nc1-c1ccc(C(=O)N[C@H](CO)c2ccccc2)cc1 [Example 137, 4-(3-amino-6-((R)-tetrahydrofuran-3-yl)pyrazin-2-yl)-N—((S)-2-hydroxy-1-phenylethyl)benzamide] | 7.51
8 | Cc1cnccc1-c1cnc(N)c(-c2ccc(C(=O)NCc3cccc(S(C)(=O)=O)c3)cc2)n1 [Example 139, 4-(3-amino-6-(3-methylpyridin-4-yl)pyrazin-2-yl)-N-(3-(methylsulfonyl)benzyl)benzamide] | 8.10
9 | Cn1nncc1-c1cnc(N)c(-c2cc(F)c(C(=O)N[C@H](CO)c3cccc(Cl)c3)c(F)c2)c1 [Example 141, (S)-4-(2-amino-5-(1-methyl-1H-1,2,3-triazol-5-yl)pyridin-3-yl)-N-(1-(3-chlorophenyl)-2-hydroxyethyl)-2,6-difluorobenzamide] | 9.74
10 | Cn1cc(-c2cnc(N)c(-c3ccc(C(=O)N[C@H](CO)c4ccccc4)cc3)n2)cn1 [Example 146, (S)-4-(3-amino-6-(1-methyl-1H-pyrazol-4-yl)pyrazin-2-yl)-N-(2-hydroxy-1-phenylethyl)benzamide] | 8.47
11 | Cn1cc(-c2cnc(N)c(-c3ccc(C(=O)NCc4cccc(S(C)(=O)=O)c4)c(F)c3)n2)cn1 [Example 147, 4-(3-amino-6-(1-methyl-1H-pyrazol-4-yl)pyrazin-2-yl)-2-fluoro-N-(3-(methylsulfonyl)benzyl)benzamide] | 7.34
12 | Cn1cc(-c2cnc(N)c(-c3ccc(C(=O)N[C@H](CO)c4ccccc4)c(F)c3)n2)cn1 [Example 148, (S)-4-(3-amino-6-(1-methyl-1H-pyrazol-4-yl)pyrazin-2-yl)-2-fluoro-N-(2-hydroxy-1-phenylethyl)benzamide] | 8.72
13 | Cc1noc(C)c1-c1cnc(N)c(-c2ccc(C(=O)N[C@H](CO)c3ccccc3)c(F)c2)n1 [Example 156, (S)-4-(3-amino-6-(3,5-dimethylisoxazol-4-yl)pyrazin-2-yl)-2-fluoro-N-(2-hydroxy-1-phenylethyl)benzamide] | 8.48
14 | Cc1oncc1-c1cnc(N)c(-c2ccc(C(=O)N[C@H](CO)c3ccccc3)c(F)c2)n1 [Example 157, (S)-4-(3-amino-6-(5-methylisoxazol-4-yl)pyrazin-2-yl)-2-fluoro-N-(2-hydroxy-1-phenylethyl)benzamide] | 9.38
15 | Cn1cc(-c2cnc(N)c(-c3ccc(C(=O)N[C@H](CO)c4cccc(Cl)c4)c(F)c3)c2)c(C#N)n1 [Example 160, (S)-4-(2-amino 5-(3-cyano-1-methyl-1H-pyrazol-4-yl)pyridin-3-yl)-N-(1-(3-chlorophenyl)-2-hydroxyethyl)-2-fluorobenzamide] | 9.19
16 | Nc1ncc(-c2cnoc2)cc1-c1ccc(C(=O)N[C@H](CO)c2ccccc2)c(F)c1 [Example 164, (S)-4-(2-amino-5-(isoxazol-4-yl)pyridin-3-yl)-2-fluoro-N-(2-hydroxy-1-phenylethyl)benzamide] | 8.85
17 | Cc1oncc1-c1cnc(N)c(-c2ccc(C(=O)N[C@H](CO)c3cccc(F)c3)c(F)c2)c1 [Example 165, (S)-4-(2-amino-5-(5-methylisoxazol-4-yl)pyridin-3-yl)-2-fluoro-N-(1-(3-fluorophenyl)-2-hydroxyethyl)benzamide] | 6.41

Other lines, results leading:

Row | pIC50 | SMILES
18 | 6.00 | Nc1ncc(C2CCS(=O)(=O)CC2)cc1-c1ccc2c(c1)OCCN(Cc1ccccc1)C2=O [Example 110, 8-(2-amino-5-(1,1-dioxidotetrahydro-2H-thiopyran-4-yl)pyridin-3-yl)-4-benzyl-3,4-dihydrobenzo[f][1,4]oxazepin-5(2H)-one]
19 | 6.11 | Nc1ncc(C2CCOCC2)cc1-c1ccc(C(=O)N[C@@H]2CCCN(Cc3ccccc3F)C2)c(F)c1 [Example 113, (R)-4-(2-amino-5-(tetrahydro-2H-pyran-4-yl)pyridin-3-yl)-2-fluoro-N-(1-(2-fluorobenzyl)piperidin-3-yl)benzamide]
20 | 5.65 | Nc1ncc(C2CCOCC2)nc1-c1ccc(C(=O)N[C@H]2CCCN(Cc3ccccc3F)C2)c(F)c1 [Example 125, (S)-4-(3-amino-6-(tetrahydro-2H-pyran-4-yl)pyrazin-2-yl)-2-fluoro-N-(1-(2-fluorobenzyl)piperidin-3-yl)benzamide]
21 | 9.08 | Cn1cc(-c2cnc(N)c(-c3ccc(C(=O)N[C@H](CO)c4cccc(Cl)c4)c(F)c3)c2)nn1 [Example 128, (S)-4-(2-amino-5-(1-methyl-1H-1,2,3-triazol-4-yl)pyridin-3-yl)-N-(1-(3-chlorophenyl)-2-hydroxyethyl)-2-fluorobenzamide]
22 | 8.69 | Nc1ncc(-c2ccc(=O)[nH]c2)nc1-c1ccc(C(=O)N[C@H](CO)c2ccccc2)cc1 [Example 129, (S)-4-(3-amino-6-(6-oxo-1,6-dihydropyridin-3-yl)pyrazin-2-yl)-N-(2-hydroxy-1-phenylethyl)benzamide]
23 | 6.69 | N#CCc1cnc(N)c(-c2ccc(C(=O)N[C@H](CO)c3ccccc3)c(F)c2)c1 [Example 134, (S)-4-(2-amino-5-(cyanomethyl)pyridin-3-yl)-2-fluoro-N-(2-hydroxy-1-phenylethyl)benzamide]
24 | 7.88 | Nc1ncc(-c2ccoc2)nc1-c1ccc(C(=O)N[C@H](CO)c2ccccc2)cc1 [Example 138]
25 | 8.85 | Cn1cncc1-c1cnc(N)c(-c2ccc(C(=O)N[C@H](CO)c3ccccc3)c(F)c2)c1 [Example 140, (S)-4-(2-amino 5-(1-methyl-1H-imidazol-5-yl)pyridin-3-yl)-2-fluoro-N-(2-hydroxy-1-phenylethyl)benzamide]
26 | 8.93 | Nc1ncc(-c2ccnnc2)nc1-c1ccc(C(=O)N[C@H](CO)c2ccccc2)c(F)c1 [Example 144, (S)-4-(3-amino-6-(pyridazin-4-yl)pyrazin-2-yl)-2-fluoro-N-(2-hydroxy-1-phenylethyl)benzamide]
27 | 9.83 | Cc1cc(-c2cc(-c3cnnn3C)cnc2N)ccc1C(=O)N[C@H](CO)c1cccc(Cl)c1 [Example 149, (S)-4-(2-amino-5-(1-methyl-1H-1,2,3-triazol-5-yl)pyridin-3-yl)-N-(1-(3-chlorophenyl)-2-hydroxyethyl)-2-methylbenzamide]
28 | 9.42 | Cc1nn(C)cc1-c1cnc(N)c(-c2ccc(C(=O)N[C@H](CN)c3ccccc3)c(F)c2)c1 [Example 153, (S)-N-(2-amino-1-phenylethyl)-4-(2-amino-5-(1,3-dimethyl-1H-pyrazol-4-yl)pyridin-3-yl)-2-fluorobenzamide]
29 | 9.54 | Cc1nn(C)c(C)c1-c1cnc(N)c(-c2ccc(C(=O)N[C@H](CO)c3cccc(Cl)c3)c(F)c2)c1 [Example 154, (S)-4-(2-amino 5-(1,3,5-trimethyl-1H-pyrazol-4-yl)pyridin-3-yl)-N-(1-(3-chlorophenyl)-2-hydroxyethyl)-2-fluorobenzamide]
30 | 8.72 | Cn1cc(-c2cnc(N)c(-c3ccc(C(=O)NC4CC4c4ccccc4)c(F)c3)n2)cn1 (stereo not shown) [Example 155, 4-(3-amino-6-(1-methyl-1H-pyrazol-4-yl)pyrazin-2-yl)-2-fluoro-N-(2-phenylcyclopropyl)benzamide]
31 | 9.20 | Cc1oncc1-c1cnc(N)c(-c2ccc(C(=O)N[C@H](CO)c3ccccc3)c(F)c2)c1 [Example 158, (S)-4-(2-amino-5-(5-methylisoxazol-4-yl)pyridin-3-yl)-2-fluoro-N-(2-hydroxy-1-phenylethyl)benzamide]
32 | 8.50 | Cn1cc(-c2cnc(N)c(-c3ccc(C(=O)N[C@H](CO)c4cccc(F)c4)c(F)c3)c2)c(C#N)n1 [Example 159, (S)-4-(2-amino-5-(3-cyano-1-methyl-1H-pyrazol-4-yl)pyridin-3-yl)-2-fluoro-N-(1-(3-fluorophenyl)-2-hydroxyethyl)benzamide]
33 | 8.24 | Cc1ncc(-c2cnc(N)c(-c3ccc(C(=O)N[C@H](CO)c4ccccc4)c(F)c3)c2)n1C [Example 161, (S)-4-(2-amino-5-(1,2-dimethyl-1H-imidazol-5-yl)pyridin-3-yl)-2-fluoro-N-(2-hydroxy-1-phenylethyl)benzamide]
34 | 8.29 | Cc1ncc(-c2cnc(N)c(-c3ccc(C(=O)N[C@H](CO)c4cccc(F)c4)c(F)c3)c2)n1C [Example 163, (S)-4-(2-amino-5-(1,2-dimethyl-1H-imidazol-5-yl)pyridin-3-yl)-2-fluoro-N-(1-(3-fluorophenyl)-2-hydroxyethyl)benzamide]
